Results as given in patent US20240307497A1, “ADIPONECTIN ALONE OR IN COMBINATION WITH EXTRACORPOREAL PHOTOPHERESIS (ECP) FOR IMMUNE RELATED ADVERSE EVENTS OF IMMUNE CHECKPOINT INHIBITORS” (Mallinckrodt Pharmaceuticals Ireland Limited, priority 2022, published 2024).
Entries after “also recorded” stand apart in the source; their conditions may differ. Like-named read-outs stand apart in the source and are kept apart here.

How the values were obtained:
[1] = system: DSS/anti-CTLA4-induced colitis; assay: DSS/anti-CTLA4-induced colitis model; format: in vivo, mice; details: AdipoRon vs vehicle; FIGS. S10a-S10d
Description: For the induction of acute colitis, mice received 3% Dextran Sodium Sulfate (DSS colitis grade, 36-50 kDa; MP Biomedicals) in drinking water from day 0 to day 3, followed by normal drinking water. Mice were injected i.p. with 0.2 mg immune checkpoint inhibitor (ICI) or the respective isotype controls on days 0, 3 and 6 of the experiment. Recipients were transplanted i.v. with 107 ECP-treated donor splenocytes on days 3 and 6. In some experiments, steroid, adiponectin or AdipoRon were applied daily from days 3-7. Arginase-1 inhibitor was applied twice per day from days 4-7. STAT6 or PPARγ inhibitors were applied from day 4-7. Mice were injected with Clodrosomes on days 1, 3, 5 and 7. […]
(§1) Colon, liver, skin and lung were harvested, formalin-fixed and paraffin embedded. Sections were stained with H&E and scored by an experienced pathologist, based on histopathological characterization of human irAEs, including lymphocyte and neutrophil infiltration, crypt abscesses, and apoptotic cells on a scale from 0 (absent) to 2 (massive). […]
For quantification of adiponectin concentrations in murine serum specimen, blood was harvested by retroorbital bleeding and serum was isolated by centrifugation. Adiponectin concentrations were measured using Adiponectin Mouse ELISA Kit (ThermoFisher) at 20,000-fold dilution.

[2] = system: F4/80^+ macrophages (BMDMs); assay: Arg1 in BMDMs exposed to recombinant adiponectin or AdipoRon; format: cell-based, mouse; details: increasing concentrations, 48 h, vs vehicle
Description: BMDMs were generated from bone marrow after erythrocyte lysis. Cells were cultured in RPMI supplemented with 10% FCS, 1% P/S and 20 ng/mL rmM-CSF (Peprotech). Culture medium was replaced on days 5 and 6. Cells were used on day 7 with a purity >95%, confirmed by surface CD11b and F4/80 expression. BMDMs (M0) were polarized for 16 h into M1 with 50 ng/mL rmIFNγ (Peprotech) and 20 ng/mL LPS (Sigma), or into M2 with 20 ng/mL rmIL-4 (Peprotech). If indicated, BMDMs were treated with increasing concentrations of recombinant adiponectin/Acrp30 (GenScript) or AdipoRon (MedChemExpress) for 48 h.
(§2) Spleens were isolated, meshed and erythrocytes were lysed. Single cell suspensions of tissues were prepared as described. Viability was analyzed by either Zombie NIR fixable dye (BioLegend) or LIVE/DEAD Fixable Aqua (Invitrogen) staining. Fc receptors were blocked with anti-mouse CD16/CD32 (BioLegend) for 10 min at 4° C., followed by surface staining with fluorochrome-conjugated antibodies for 30 min at 4° C. […] Antigen-specific CD8 T-cells were analyzed after H-2Kb/OVA^257-264 dextramer staining (Immudex). […] All data were acquired on a BD LSR Fortessa (BD Biosciences) and analyzed with FlowJo v10 (TreeStar). […] Data was acquired with a Canto II flow cytometer (BD Biosciences) and analyzed using FACSDiva Software V6 (BD Biosciences).

[3] = system: DSS/anti-PD1-induced colitis; assay: DSS/anti-PD1-induced colitis model; format: in vivo, mice; details: for ICI-induced colonic inflammation, combination with ECP: ECP plus agent vs ECP plus vehicle, FIGS. 4i-p; for severity of ICI-induced colitis (bodyweight, colon length, neutrophil and lymphocyte infiltration): monotherapy vs vehicle, daily days 3-7, FIGS. 4a-h
Description: For modeling ECP transplantation in vivo, splenocytes of donor mice were used. Donor animals were treated identically to the respective recipient groups. Spleens were harvested, meshed and erythrocytes were lysed. Splenocytes were resuspended to 3-5×10^6 cells/mL in RPMI, supplemented with 10% FCS and 1% P/S, and treated with 200 ng/mL 8-methoxypsoralen (8-MOP; Uvadex©, Therakos) at 37° C. and 5% CO2 for 30 min. Following incubation, the cells were exposed to UVA light (2 J/cm2) in a calibrated BS-02 irradiation chamber, operated in dose-controlled mode (Opsytec Dr. Gröbel). ECP-treated splenocytes were resuspended in PBS and […] were injected intravenously into recipient mice. Where indicated, PBMCs were treated with ECP comparably to splenocytes and 107 PBMCs were injected intravenously into recipient mice. PBMCs from mouse EDTA-blood were isolated using Ficoll-Paque PREMIUM 1.084 (Cytiva). For ECP-treatment of epithelial cells, 6×10^6 MODE-K cells were seeded onto 10 cm dishes one day before ECP-treatment. The next day, cells were treated with 8-methoxypsoralen and UVA light in a calibrated BS-02 irradiation chamber. Cells were washed with PBS and 2×10^6 ECP-treated MODE-K cells were injected intravenously into recipient mice.
For the induction of acute colitis, mice received 3% Dextran Sodium Sulfate (DSS colitis grade, 36-50 kDa; MP Biomedicals) in drinking water from day 0 to day 3, followed by normal drinking water. Mice were injected i.p. with 0.2 mg immune checkpoint inhibitor (ICI) or the respective isotype controls on days 0, 3 and 6 of the experiment. Recipients were transplanted i.v. with 107 ECP-treated donor splenocytes on days 3 and 6. In some experiments, steroid, adiponectin or AdipoRon were applied daily from days 3-7. Arginase-1 inhibitor was applied twice per day from days 4-7. STAT6 or PPARγ inhibitors were applied from day 4-7. Mice were injected with Clodrosomes on days 1, 3, 5 and 7. If not indicated differently, mice were sacrificed in day 8 by retroorbital bleeding to harvest serum and organs which were harvested for histopathological scoring and gene expression analysis.
ICI treatment consisted of either 0.2 mg anti-PD1 (mouse, clone RMP1-14; Ichorbio) or 0.2 mg anti-CTLA4 (mouse, clone 9D9; Ichorbio) per injection intraperitoneally. Controls were Rat IgG2a Isotype Control (clone 1-1, Ichorbio) and Mouse IgG2b Isotype Control (clone MPC-11, Ichorbio), respectively. […]
as §1

ICI-colitis = details: cited from earlier work; for ORR (clinical remission) / response rate: retrospective observational cohort, best response at any time point
ICI-hepatitis = details: cited from earlier work; for Response / Steroid reduction: case reports
[4] = system: DSS/anti-PD1-induced colitis; assay: Adoptive transfer of adiponectin-treated T-cells into colitis mice; format: in vivo; details: adiponectin-treated vs vehicle-treated T-cells
Description: (§3) Splenic T-cells were isolated from C57BL/6 donors using Pan T-cell isolation kit II (Miltenyi) and activated using anti-CD3/CD28 beads (ThermoScientific) in the presence of 30 U/mL rmIL2 (Peprotech). T-cells were treated with 9 μg/mL recombinant murine adiponectin (GenScript) or vehicle for 72 h. C57BL/6 recipients received 1% DSS (MP Biomedicals) in drinking water from day 0 to day 3, followed by normal drinking water to induce mild colitis. Mice were injected i.p. with 0.2 mg anti-PD1 on day 0, day 3 and day 6 of the experiment. On day 4, activation beads were removed, T-cells were washed and 5×106 T-cells were intravenously injected into colitis animals. Colitis tissue was harvested on day 8. T-cells were stained for CD25 surface expression to determine activation.
Colon, liver, skin and lung were harvested, formalin-fixed and paraffin embedded. Sections were stained with H&E and scored by an experienced pathologist, based on histopathological characterization of human irAEs, including lymphocyte and neutrophil infiltration, crypt abscesses, and apoptotic cells on a scale from 0 (absent) to 2 (massive). Scoring was done blinded to the experimental group.

pan T-cells = assay: T-cell activation with anti-CD3/CD28 beads in the presence of adiponectin; format: cell-based, mouse; details: 72 h, vs vehicle
Description: as §3
as §2, with “staining.” for “staining. Fc receptors were blocked with anti-mouse CD16/CD32 (BioLegend) for 10 min at 4° C., followed by surface staining with fluorochrome-conjugated antibodies for 30 min at 4° C.”

[5] = retrospective analysis of 8 patients
[6] = retrospective analysis of 13 patients

O=C(COc1ccc(C(=O)c2ccccc2)cc1)NC1CCN(Cc2ccccc2)CC1 [AdipoRon]
DSS/anti-CTLA4-induced colitis / intestinal inflammation [1]: reduced anti-CTLA-4-induced colitis; also recorded: also in DSS/anti-CTLA4-induced intestinal inflammation | Arg1 (MFI) in BMDMs [2]: upregulation of immunosuppressive Arg1 | ICI-induced colonic inflammation, combination with ECP [3]: synergized with ECP to reduce ICI-induced colonic inflammation | severity of ICI-induced colitis (bodyweight, colon length, neutrophil and lymphocyte infiltration) [3]: effective in anti-PD1-mediated colitis

Vedolizumab: treatment for ICI-colitis in cited studies
endoscopic remission rate (ICI-colitis; retrospective case series, 28 patients refractory to steroids and/or infliximab): 29% | ORR (clinical remission) / response rate (ICI-colitis): 89% | ORR (clinical remission) / response rate (ICI-colitis; listed as vedolizumab): 89%

COc1c(C)c2c(c(O)c1C/C=C(\C)CCC(=O)OCCN1CCOCC1)C(=O)OC2 [Mycophenolate mofetil]
Response (ICI-hepatitis): Improved liver injury within 13; also recorded: Discharge of MMF after 68 days; also recorded: Liver function normalized within 3 | Steroid reduction (ICI-hepatitis): Tapered from 60 to 10 mg/d; also recorded: Tapered from 500 to 10 mg/d; also recorded: Discontinuation after 1 year | ORR (ICI-hepatitis; retrospective, 8 patients, liver function tests to grade 1 or less): 50% | Adverse events (ICI-hepatitis; retrospective, 8 patients): 25%

Infliximab: TNF antagonist
Response (ICI-hepatitis): Partial response, reduction of ALT | Steroid reduction (ICI-hepatitis): Tapering to 30%, off steroid at 14 | CR rate (ICI-colitis; [5]): 38% | ORR (ICI-colitis; [5]): 50% | CR (ICI-colitis; [6]): 31% | ORR (ICI-colitis; [6]): 45% | ORR (clinical remission) / response rate (ICI-colitis): 88%

C=CC[C@@H]1/C=C(\C)C[C@H](C)C[C@H](OC)[C@H]2O[C@@](O)(C(=O)C(=O)N3CCCC[C@H]3C(=O)O[C@H](/C(C)=C/[C@@H]3CC[C@@H](O)[C@H](OC)C3)[C@H](C)[C@@H](O)CC1=O)[C@H](C)C[C@@H]2OC [Tacrolimus]
Response (ICI-hepatitis): Decreasing ALT levels within 2-5 | Steroid reduction (ICI-hepatitis): Cessation at 12 months; also recorded: Cessation of prednisolone over 6

Tocilizumab: interleukin-6 blockade by tocilizumab
Adverse events, any grade (ICI-colitis; human, in vivo): 80% | Adverse events, grade 3-4 (ICI-colitis; human, in vivo): 25% | patients with reduction in symptoms (ICI-colitis; prospective trial, best response during 8 weeks): 8 of 10 | ORR (ICI-colitis; prospective, 10 patients, colitis improvement (≥1 grade reduction) within 8 weeks): 80% | CR (ICI-colitis; prospective, 10 patients): 0%

B1: adiponectin: recombinant murine adiponectin (GenScript); protein hormone and adipokine (protein, UniProt Q60994 18-247, looked up)
Adiponectin: EDDVTTTEELAPALVPPPKGTCAGWMAGIPGHPGHNGTPGRDGRDGTPGEKGEKGDAGLLGPKGETGDVGMTGAEGPRGFPGTPGRKGEPGEAAYVYRSAFSVGLETRVTVPNVPIRFTKIFYNQQNHYDGSTGKFYCNIPGLYYFSYHITVYMKDVKVSLFKKDKAVLFTYDQYQEKNVDQASGSVLLHLEVGDQVWLQVYGDGDHNGLYADNVNDSTFTGFLLYHDTN
Arg1 (MFI) in BMDMs [2]: upregulation of immunosuppressive Arg1 | ICI-induced colonic inflammation, combination with ECP [3]: synergized with ECP to reduce ICI-induced colonic inflammation | severity of ICI-induced colitis (bodyweight, colon length, neutrophil and lymphocyte infiltration) [3]: reduce the severity of colitis | colitis severity in recipients of treated T-cells [4]: Colitis severity was lower | CD25 expression on CD4^+ and CD8^+ T-cells (pan T-cells; 9 μg/mL): reduced the expression of CD25 | FoxP3 expression and CD4^+/CD8^+ T-cell frequencies (pan T-cells): no effect on FoxP3 expression and CD4^+/CD8^+ T-cell frequencies
